Where two headings read alike, the source gives them in different places.
What was measured:
HSC = details: in vivo; cited from earlier work
[1] = tested on: lymphoma mutations and genetic variations; details: single dose of 20 mg, blood 12 hours later, vs control group bone marrow
Protocol: Human patients who are diagnosed with lymphoma are split into two experimental groups, an “LBYE” group and a “control group.” Patients may be matched across experimental groups by age, sex, and other clinical factors, such as lymphoma burden or genetic profile of the lymphoma in the patient.
Patients in the “LBYE” experimental group are administered a single dose of 20 mg plerixafor and undergo blood sampling 12 hours later. This sample is analyzed for the presence of various mutations and genetic variations known to influence prognosis in myeloma. […] In a variation on the above experiment, the LBYE group patients undergo a bone marrow examination which is subjected to appropriate testing.
In another variation on the experiment, the LBYE group's marrow and blood sample are pooled and analyzed in a single assay to make the test more cost-effective. […] The mononuclear cell fraction is analyzed for the presence of lymphoma CTCs by multiparametric flow cytometry according to methods described herein. Lymphoma CTCs are genetically profiled, e.g., by sequencing to determine the mutational profile of the CTCs. Mutational profile of the CTC sample is, in some cases, compared to mutational profile of lymphoma cells obtained from bone marrow sample from the same patient.

[2] = tested on: multiple myeloma residual disease (diseased cells mobilized into blood)
Protocol: Patients may be matched across experimental groups by age, sex, and other clinical factors, such as multiple myeloma burden or genetic profile of the multiple myeloma in the patient. When in complete remission using conventional techniques after appropriate therapy, patients in the control group undergo a blood as well as bone marrow examination each of which is subjected to MRD detection/assay using the ClonoSEQ® technique (Adaptive Biotechnologies). […] About 12 hours after plerixafor administration, patients in the LBYE group undergo a blood draw. The blood samples are subjected to MRD assay using the ClonoSEQ® technique. […] In another variation of the experiment, where myeloma patients serve as their own controls, patients undergo bone marrow examination after attaining complete remission. The marrow is subjected to MRD assay by ClonoSEQ®. After the marrow exam is done, each patient receives 20 mg plerixafor and the blood is sampled 12 hours later. Blood samples are subjected to MRD assay by ClonoSEQ®.

[3] = tested on: solid tumor mutations and genetic variations; details: single dose of 20 mg, blood 12 hours later, vs control group solid tumor examination
Protocol: Human patients who are diagnosed with one or more solid tumors are split into two experimental groups, an “LBYE” group and a “control group.” Patients may be matched across experimental groups by age, sex, and other clinical factors, such as solid tumor burden or genetic profile of the solid tumor in the patient.
Patients in the “LBYE” experimental group are administered a single dose of 20 mg plerixafor and undergo blood sampling 12 hours later. This sample is analyzed for the presence of various mutations and genetic variations known to influence prognosis in myeloma. […] In a variation on the above experiment, the LBYE group patients undergo a solid tumor examination which is subjected to appropriate testing.
In another variation on the experiment, the LBYE group's tumor and blood samples are pooled and analyzed in a single assay to make the test more cost-effective. […] The mononuclear cell fraction is analyzed for the presence of solid tumor CTCs by multiparametric flow cytometry according to methods described herein. Solid tumor CTCs are genetically profiled, e.g., by sequencing to determine the mutational profile of the CTCs. Mutational profile of the CTC sample is, in some cases, compared to mutational profile of solid tumor cells obtained from solid tumor sample from the same patient.

cfDNA / ctDNA = details: plasma
Protocol: Cell-free DNA (cfDNA) is isolated from patient plasma samples according to known methods. The concentration of the isolated cfDNA from LBYE and control patients are determined.

[4] = tested on: solid tumor residual disease (diseased cells mobilized into blood)
Protocol: When in complete remission using conventional techniques after appropriate therapy, patients in the control group undergo a blood examination each of which is subjected to MRD detection/assay using an appropriate assay (e.g. The Guardant 360 liquid biopsy or the Tempus XF liquid biopsy). […] About 12 hours after plerixafor administration, patients in the LBYE group undergo a blood draw. The blood samples are subjected to the same MRD assay.
In another variation of the experiment, where cancer patients serve as their own controls, patients undergo blood examination after attaining complete remission. Afterwards, each patient receives 20 mg plerixafor and the blood is sampled 12 hours later. Both samples are subjected to MRD assay.

[5] = tested on: multiple myeloma mutations and genetic variations; details: single dose of 20 mg, blood 12 hours later, vs control group bone marrow
Text: Patients may be matched across experimental groups by age, sex, and other clinical factors, such as multiple myeloma burden or genetic profile of the multiple myeloma in the patient.

[6] = tested on: lymphoma residual disease (diseased cells mobilized into blood)
Protocol: About 12 hours after plerixafor administration, patients in the LBYE group undergo a blood draw. The blood samples are subjected to MRD assay. […] In another variation of the experiment, where lymphoma patients serve as their own controls, patients undergo blood sampling after attaining complete remission. The blood is subjected to MRD assay. After the blood test is done, each patient receives 20 mg plerixafor and the blood is sampled 12 hours later. These blood samples are subjected to MRD assay by the same technique.

[7] = complete remission, single 20 mg dose, blood about 12 hours after, vs control group blood and bone marrow
[8] = patients as own controls, 20 mg, blood 12 hours later

Structure (SMILES): c1cc(CN2CCCNCCNCCCNCC2)ccc1CN1CCCNCCNCCCNCC1 [plerixafor, 1-{[4-(1,4,8,11-tetrazacyclotetradec-1-ylmethyl)phenyl]methyl}-1,4,8,11-tetrazacyclotetradecane]
- Mobilization of HSC (HSC): rapidly mobilize HSC within hours
- Frequency and breadth of abnormalities (mutations and genetic variations) [1]: greater frequency and breadth of abnormalities than those in the control group
- Number of patients with residual disease detected (MRD assay, ClonoSEQ) [2, 7]: Residual disease is detected in a greater number of patients in the LBYE group than in the control group
- Proportion of patients positive for MRD, blood after LBYE vs bone marrow ([2]; patients as own controls, 20 mg, blood 12 hours later, ClonoSEQ): A greater proportion of patients is found to be positive for MRD from the blood after the LBYE technique than the bone marrow
- Frequency and breadth of abnormalities (mutations and genetic variations) [3]: greater frequency and breadth of abnormalities than those in the control group
- cfDNA concentration/amount after LBYE (cfDNA / ctDNA; lymphoma, patients as own controls, amongst patients positive for MRD): the concentration/amount of cfDNA is higher after LBYE
- cfDNA concentration, LBYE group vs control group (cfDNA / ctDNA; multiple myeloma): higher cfDNA concentrations than patients in the control group
- cfDNA concentration, LBYE group vs control group (cfDNA / ctDNA; solid tumor): higher cfDNA concentrations than patients in the control group
- Number of patients with residual disease detected (MRD assay) ([4]; complete remission, single 20 mg dose, blood about 12 hours after, vs control group blood): Residual disease is detected in a greater number of patients in the LBYE group than in the control group
- Proportion of patients positive for MRD, post- vs pre-plerixafor blood sample [4, 8]: A greater proportion of patients is found to be positive for MRD from the blood sample obtained after plerixafor administration, as compared to the pre-plerixafor blood sample
- Frequency and breadth of abnormalities (mutations and genetic variations) [5]: greater frequency and breadth of abnormalities than those in the control group
- Number of patients with residual disease detected (MRD assay) [6, 7]: Residual disease is detected in a greater number of patients in the LBYE group than in the control group
- Proportion of patients positive for MRD, blood after LBYE vs non-LBYE blood sample [6, 8]: A greater proportion of patients is found to be positive for MRD from the blood after the LBYE technique than the non-LBYE blood sample

From US11933783B2, “Liquid biopsy yield enhancement” (priority 2020, dated 2024)
